This note sets out measurements from PubChem BioAssay AID212 (DTP/NCI, 2004).

The assay concerns BDF1 mice, colon carcinoma 38 sc, T/C %. The assay can be described thus: NCI In Vivo Anticancer Drug Screen. Data for tumor model Colon Carcinoma 38 (subcutaneous) in B6D2F1 (BDF1) mice. Summed up:
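Mice with transplanted tumors are treated with compound or vehicle. Survival or tumor size is then measured in both groups. The ratio of treated to control gives the reported figure.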

[1] abbreviates: endpoint: median tumor weight (est.), dose: 0.5 mg/kg/injection, schedule: Q07DX003 (ip), vehicle: saline, higher = larger tumour.
The mark [2] stands for this setting: endpoint: median tumor weight (est.), dose: 1.0 mg/kg/injection, schedule: Q07DX003 (ip), vehicle: saline, higher = larger tumour.
Where [3] appears, read: endpoint: median tumor weight (est.), dose: 2.5 mg/kg/injection, schedule: Q07DX002 (ip), vehicle: saline, higher = larger tumour.
[4] abbreviates: endpoint: median tumor weight (est.), dose: 5.0 mg/kg/injection, schedule: Q07DX002 (ip), vehicle: saline, higher = larger tumour.
Where [5] appears, read: endpoint: median tumor weight (est.), dose: 25.0 mg/kg/injection, schedule: Q07DX003 (ip), vehicle: saline, higher = larger tumour.
Where [6] appears, read: endpoint: median tumor weight (est.), dose: 200.0 mg/kg/injection, schedule: Q07DX003 (ip), vehicle: saline, higher = larger tumour.

Values joined by “and” are separate entries in the source; they are usually repeats but may differ in a detail not shown here. Equal values may be shown once. Records with an inconclusive call do not appear.

Take `COc1cccc2c1C(=O)c1c(O)c3c(c(O)c1C2=O)C[C@@](O)(C(=O)CO)C[C@@H]3OC1CC(N)C(O)C(C)O1` (stereo not given in full): the T/C by setting is: (endpoint: median survival time, dose: 2.7 mg/kg/injection, schedule: Q07DX003 (iv), vehicle: saline, higher = longer survival) 104 % of control; (endpoint: median survival time, dose: 3.3 mg/kg/injection, schedule: Q07DX002 (iv), vehicle: saline, higher = longer survival) 112 % of control and 108 % of control; (endpoint: median survival time, dose: 3.3 mg/kg/injection, schedule: Q07DX004 (iv), vehicle: saline, higher = longer survival) 118 % of control; (endpoint: median survival time, dose: 4.1 mg/kg/injection, schedule: Q07DX003 (iv), vehicle: saline, higher = longer survival) 100 % of control; (endpoint: median survival time, dose: 4.5 mg/kg/injection, schedule: Q07DX002 (sc), vehicle: saline, higher = longer survival) 79 % of control; (endpoint: median survival time, dose: 5.2 mg/kg/injection, schedule: Q07DX002 (iv), vehicle: saline, higher = longer survival) 174 % of control. In addition, the T/C by setting is: (endpoint: median survival time, dose: 5.4 mg/kg/injection, schedule: Q07DX002 (iv), vehicle: saline, higher = longer survival) 109 % of control and 124 % of control; (endpoint: median survival time, dose: 5.4 mg/kg/injection, schedule: Q07DX004 (iv), vehicle: saline, higher = longer survival) 155 % of control; (endpoint: median survival time, dose: 6.0 mg/kg/injection, schedule: Q07DX003 (iv), vehicle: saline, higher = longer survival) 157 % of control; (endpoint: median survival time, dose: 7.3 mg/kg/injection, schedule: Q07DX002 (sc), vehicle: saline, higher = longer survival) 104 % of control; (endpoint: median survival time, dose: 8.5 mg/kg/injection, schedule: Q07DX002 (sc), vehicle: saline, higher = longer survival) 166 % of control; (endpoint: median survival time, dose: 8.7 mg/kg/injection, schedule: Q07DX002 (iv), vehicle: saline, higher = longer survival) 124 % of control. The T/C is, setting by setting: (endpoint: median survival time, dose: 8.7 mg/kg/injection, schedule: Q07DX004 (iv), vehicle: saline, higher = longer survival) 184 % of control; (endpoint: median survival time, dose: 9.0 mg/kg/injection, schedule: Q07DX003 (iv), vehicle: saline, higher = longer survival) 168 % of control; (endpoint: median survival time, dose: 9.0 mg/kg/injection, schedule: Q07DX003 (sc), vehicle: saline, higher = longer survival) 164 % of control; (endpoint: median survival time, dose: 12.0 mg/kg/injection, schedule: Q07DX002 (sc), vehicle: saline, higher = longer survival) 113 % of control; (endpoint: median survival time, dose: 13.5 mg/kg/injection, schedule: Q07DX003 (sc), vehicle: saline, higher = longer survival) 166 % of control; (endpoint: median survival time, dose: 15.5 mg/kg/injection, schedule: Q07DX003 (iv), vehicle: saline, higher = longer survival) 152 % of control. Besides, the T/C is, setting by setting: (endpoint: median tumor weight (est.), dose: 0.18 mg/kg/injection, schedule: Q07DX002 (ip), vehicle: water, higher = larger tumour) 67 % of control; (endpoint: median tumor weight (est.), dose: 0.37 mg/kg/injection, schedule: Q07DX002 (ip), vehicle: water, higher = larger tumour) 102 % of control; (endpoint: median tumor weight (est.), dose: 0.5 mg/kg/injection, schedule: Q07DX002 (ip), vehicle: water, higher = larger tumour) 108 % of control; under setting [1], 101 % of control; under setting [2], 101 % of control; (endpoint: median tumor weight (est.), dose: 1.25 mg/kg/injection, schedule: Q07DX002 (ip), vehicle: water, higher = larger tumour) 90 % of control. In addition, the T/C (endpoint: median tumor weight (est.), dose: 2.0 mg/kg/injection, schedule: Q07DX003 (ip), vehicle: saline, higher = larger tumour) is 191 % of control; the T/C under setting [3] was 90 % of control; the T/C (endpoint: median tumor weight (est.), dose: 2.5 mg/kg/injection, schedule: Q07DX002 (ip), vehicle: water, higher = larger tumour) was 50 % of control; the T/C (endpoint: median tumor weight (est.), dose: 3.0 mg/kg/injection, schedule: Q07DX002 (ip), vehicle: saline, higher = larger tumour) was 106 % of control and 110 % of control; the T/C (endpoint: median tumor weight (est.), dose: 3.0 mg/kg/injection, schedule: Q07DX003 (iv), vehicle: saline, higher = larger tumour) was 82 % of control and 83 % of control; the T/C (endpoint: median tumor weight (est.), dose: 4.0 mg/kg/injection, schedule: Q07DX003 (ip), vehicle: saline, higher = larger tumour) is 85 % of control. For the same molecule, the T/C by setting is: (endpoint: median tumor weight (est.), dose: 4.75 mg/kg/injection, schedule: Q07DX002 (ip), vehicle: water, higher = larger tumour) 68 % of control; under setting [4], 70 % of control; (endpoint: median tumor weight (est.), dose: 5.0 mg/kg/injection, schedule: Q07DX002 (ip), vehicle: water, higher = larger tumour) 25 % of control; (endpoint: median tumor weight (est.), dose: 6.33 mg/kg/injection, schedule: Q07DX002 (ip), vehicle: water, higher = larger tumour) 14 % of control; (endpoint: median tumor weight (est.), dose: 8.0 mg/kg/injection, schedule: Q07DX003 (ip), vehicle: saline, higher = larger tumour) 91 % of control; (endpoint: median tumor weight (est.), dose: 8.44 mg/kg/injection, schedule: Q07DX002 (ip), vehicle: water, higher = larger tumour) 53 % of control. The T/C is, setting by setting: (endpoint: median tumor weight (est.), dose: 9.0 mg/kg/injection, schedule: Q07DX002 (ip), vehicle: water, higher = larger tumour) 56 % of control; (endpoint: median tumor weight (est.), dose: 11.25 mg/kg/injection, schedule: Q07DX002 (ip), vehicle: water, higher = larger tumour) 21 % of control; (endpoint: median tumor weight (est.), dose: 12.0 mg/kg/injection, schedule: Q07DX002 (ip), vehicle: saline, higher = larger tumour) 53 % of control; (endpoint: median tumor weight (est.), dose: 12.0 mg/kg/injection, schedule: Q07DX003 (iv), vehicle: saline, higher = larger tumour) 26 % of control; (endpoint: median tumor weight (est.), dose: 15.0 mg/kg/injection, schedule: Q07DX002 (ip), vehicle: water, higher = larger tumour) 6 % of control; (endpoint: median tumor weight (est.), dose: 16.0 mg/kg/injection, schedule: Q07DX003 (ip), vehicle: saline, higher = larger tumour) 103 % of control. Besides, the T/C (endpoint: median tumor weight (est.), dose: 24.0 mg/kg/injection, schedule: Q07DX003 (iv), vehicle: saline, higher = larger tumour) is 12 % of control.
In the case of `C=C(C)[C@H]1CN[C@H](C(=O)O)[C@H]1CC(=O)O`, the T/C reads like this: (endpoint: median tumor weight (est.), dose: 0.62 mg/kg/injection, schedule: Q07DX002 (ip), vehicle: saline, higher = larger tumour) 58 % of control; (endpoint: median tumor weight (est.), dose: 1.25 mg/kg/injection, schedule: Q07DX002 (ip), vehicle: saline, higher = larger tumour) 80 % of control; under setting [3], 92 % of control; under setting [4], 95 % of control; (endpoint: median tumor weight (est.), dose: 6.25 mg/kg/injection, schedule: Q07DX002 (ip), vehicle: saline, higher = larger tumour) 90 % of control; (endpoint: median tumor weight (est.), dose: 10.0 mg/kg/injection, schedule: Q07DX002 (ip), vehicle: saline, higher = larger tumour) 79 % of control. Further, the T/C (endpoint: median tumor weight (est.), dose: 12.5 mg/kg/injection, schedule: Q07DX002 (ip), vehicle: saline, higher = larger tumour) was 73 % of control; the T/C (endpoint: median tumor weight (est.), dose: 20.0 mg/kg/injection, schedule: Q07DX002 (ip), vehicle: saline, higher = larger tumour) was 90 % of control; the T/C (endpoint: median tumor weight (est.), dose: 25.0 mg/kg/injection, schedule: Q07DX002 (ip), vehicle: saline, higher = larger tumour) was 90 % of control.
In the case of `NC(=S)N/N=C/c1ccc(OC(=O)COc2ccccc2)cn1`, the T/C is 88 % of control (endpoint: median tumor weight (est.), dose: 25.0 mg/kg/injection, schedule: Q07DX002 (ip), vehicle: saline with Tween-80, higher = larger tumour); 88 % of control (endpoint: median tumor weight (est.), dose: 50.0 mg/kg/injection, schedule: Q07DX002 (ip), vehicle: saline with Tween-80, higher = larger tumour); 55 % of control (endpoint: median tumor weight (est.), dose: 100.0 mg/kg/injection, schedule: Q07DX002 (ip), vehicle: saline with Tween-80, higher = larger tumour); 72 % of control (endpoint: median tumor weight (est.), dose: 200.0 mg/kg/injection, schedule: Q07DX002 (ip), vehicle: saline with Tween-80, higher = larger tumour); 57 % of control (endpoint: median tumor weight (est.), dose: 400.0 mg/kg/injection, schedule: Q07DX002 (ip), vehicle: saline with Tween-80, higher = larger tumour).
Turning to `C=Cc1cnc([N+](=O)[O-])n1C`, the T/C by setting is: (endpoint: median tumor weight (est.), dose: 12.5 mg/kg/injection, schedule: Q07DX002 (ip), vehicle: Klucel (hydroxypropylcellulose) (HPC), higher = larger tumour) 67 % of control and 84 % of control; (endpoint: median tumor weight (est.), dose: 25.0 mg/kg/injection, schedule: Q07DX002 (ip), vehicle: Klucel (hydroxypropylcellulose) (HPC), higher = larger tumour) 109 % of control and 97 % of control; (endpoint: median tumor weight (est.), dose: 50.0 mg/kg/injection, schedule: Q07DX002 (ip), vehicle: Klucel (hydroxypropylcellulose) (HPC), higher = larger tumour) 62 % of control and 69 % of control.
With `O=C1C=CN(C2OC(CO)C(O)C2O)C(=O)C1` (stereo not given), the T/C was 121 % of control under setting [5]; 73 % of control (endpoint: median tumor weight (est.), dose: 100.0 mg/kg/injection, schedule: Q07DX003 (ip), vehicle: saline, higher = larger tumour); 163 % of control under setting [6].
With `C1CN1c1nc(N2CC2)nc(N2CC2)n1`, the T/C is 30 % of control (endpoint: median tumor weight (est.), dose: 0.25 mg/kg/injection, schedule: Q07DX003 (ip), vehicle: saline, higher = larger tumour); 43 % of control under setting [1]; 36 % of control under setting [2].
Take `C1OC1CO[C@@H]1CO[C@H]2[C@@H]1OC[C@H]2OCC1CO1` (stereo not given in full): the T/C (endpoint: median tumor weight (est.), dose: 12.5 mg/kg/injection, schedule: Q07DX003 (ip), vehicle: saline, higher = larger tumour) was 47 % of control; the T/C (endpoint: median tumor weight (est.), dose: 25.0 mg/kg/injection, schedule: Q07DX002 (ip), vehicle: suspension in saline, higher = larger tumour) was 116 % of control; the T/C under setting [5] was 82 % of control; the T/C (endpoint: median tumor weight (est.), dose: 50.0 mg/kg/injection, schedule: Q07DX002 (ip), vehicle: suspension in saline, higher = larger tumour) was 117 % of control; the T/C (endpoint: median tumor weight (est.), dose: 50.0 mg/kg/injection, schedule: Q07DX003 (ip), vehicle: saline, higher = larger tumour) is 83 % of control; the T/C (endpoint: median tumor weight (est.), dose: 100.0 mg/kg/injection, schedule: Q07DX002 (ip), vehicle: suspension in saline, higher = larger tumour) is 79 % of control. Moreover, the T/C (endpoint: median tumor weight (est.), dose: 200.0 mg/kg/injection, schedule: Q07DX002 (ip), vehicle: suspension in saline, higher = larger tumour) is 98 % of control; the T/C under setting [6] was 79 % of control and 94 % of control; the T/C (endpoint: median tumor weight (est.), dose: 400.0 mg/kg/injection, schedule: Q07DX002 (ip), vehicle: suspension in saline, higher = larger tumour) is 70 % of control.
